Here are results for six compounds from patent US10149841B2, “Compound of 3-hydroxyl pyridine, preparation method thereof and pharmaceutical use thereof” (SHENYANG SUNSHINE PHARMACEUTICAL CO. LTD., priority 2015, dated 2018).

In the assay the target is HIF Prolyl hydroxylases 2 (PHD2) (Homo sapiens (Human), UniProt Q9GZT9). The assay is described as follows: Inhibitory effect on PHD2 by fluorescence polarization (HIF-1α / VBC complex interaction). Type of assay: biochemical. The settings on record: PHD2 0.5 μg/μl, FAM-HIF (556-575) 1 μM, FP readout with GST-VBC complex. Here is the method:
Biological Example 2: Detection of Inhibitory Effect of the Compounds on PHD2 (IC50)
The interaction between hypoxia-inducible factor HIF-1α and VBC complex (von Hippel-Lindau protein-Elongin B-Elongin C, VBC) was detected by Fluorescence polarization (FP) method, to measure the enzyme inhibitory activity of the HIF Prolyl hydroxylases 2 (PHD2) inhibitor compounds.
To a NETN (20 mM Tris.HCl, 100 mM NaCl, 1 mM EDTA, 0.5% NP-40, 1 mM PMSF) buffer containing 200 μM ascorbic acid, 20 μM α-ketoglutaric acid, 100 μM FeCl2 was added FAM-HIF (556-575) at a final concentration of 1 μM in the dark. Subsequently, the desired concentration of the test compound or the positive compound was added (the compound was replaced by the buffer in the negative control and the positive control). Finally, PHD2 was added at a final concentration of 0.5 μg/μl (PHD2 was replaced by the buffer in the negative control). They were mixed well and allowed to stand at room temperature for 30 minutes in the dark followed by 95° C. water bath for 1 minute, and then the reaction was terminated. After the temperature drops to room temperature, the sample was prepared well for use. EBC buffer (50 mM Tris.HCl, 120 mM NaCl, 0.5% NP-40) was added to the corresponding wells of a black 96-well test plate. A GST-VBC complex was added to the corresponding test wells at a final concentration of 300 nM (using the wells containing only EBC buffer as blank wells). Subsequently, the corresponding PHD2 prolyl hydroxylation reaction sample was added in the dark as a substrate with a final concentration of 100 nM. After mixing well, the lateral and longitudinal fluorescence intensity values were measured using a full-wavelength multifunctional microplate reader (TECAN infinite M1000) at an excitation wavelength of […] and an emission wavelength of 518 nm.
The fluorescence polarization (mP) was calculated: mP=1000×(lateral value−G factor×longitudinal value)/(lateral value+G factor×longitudinal value)
wherein, lateral value=lateral fluorescence intensity value of test well−lateral fluorescence intensity value of blank well, • longitudinal value=longitudinal fluorescence intensity value of test well−longitudinal fluorescence intensity value of blank well,
PHD2 inhibition rate (%) of the test compound was calculated according to the following formula: Inhibition rate (%)=1−(mP test well−mP negative control well)/(mP positive control well−mP negative control well).
The IC50 was calculated using the non-linear regression data analysis method of Graphpad Prism 4.0 software ([…]).
For orientation: Fluorescence polarisation rises when a labelled molecule tumbles more slowly, as on binding a larger partner.

Chain of HIF Prolyl hydroxylases 2 (PHD2) (Q9GZT9 whole entry, species assumed): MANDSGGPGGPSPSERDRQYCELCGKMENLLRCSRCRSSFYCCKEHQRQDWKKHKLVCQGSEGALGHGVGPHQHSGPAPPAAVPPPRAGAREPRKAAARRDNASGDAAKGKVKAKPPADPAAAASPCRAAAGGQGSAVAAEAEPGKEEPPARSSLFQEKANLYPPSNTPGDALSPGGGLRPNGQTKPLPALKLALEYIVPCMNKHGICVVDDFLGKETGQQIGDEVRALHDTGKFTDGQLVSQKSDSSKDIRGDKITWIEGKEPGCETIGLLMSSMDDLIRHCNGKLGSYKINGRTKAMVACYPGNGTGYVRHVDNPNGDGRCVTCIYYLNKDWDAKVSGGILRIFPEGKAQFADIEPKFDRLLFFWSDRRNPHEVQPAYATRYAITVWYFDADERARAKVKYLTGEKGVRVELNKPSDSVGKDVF

One may read the IC50 as the midpoint of a concentration-inhibition curve. `O=C(O)CNC(=O)c1ncc(Oc2ccccc2)cc1O` [Compound 1, 2-(3-hydroxy-5-phenoxy-2-pyridylformamido) acetic acid] gave a concentration for half-maximal inhibition (IC50) of 84 µM. `Cc1ccc(Oc2cnc(C(=O)NCC(=O)O)c(O)c2)c(C)c1` [Compound 19, 2-(5-(2,4-dimethylphenoxy)-3-hydroxypyridine-2-formamido) acetic acid] showed a 50% inhibitory concentration (IC50) of 63 µM.

The compound `O=C(O)CNC(=O)c1ncc(Oc2cccc(Cl)c2)cc1O` [Compound 22, 2-(5-(3-chlorophenoxy)-3-hydroxypyridine-2-formamido) acetic acid] returned a half-maximal inhibitory concentration (IC50) of 236 µM.

In the case of `O=C(O)CNC(=O)c1ncc(Oc2ccc3ccccc3c2)cc1O` [Compound 8, 2-(3-hydroxy-5-(naphthalen-2-oxo)pyridine-2-formamido) acetic acid], the half-maximal inhibitory concentration (IC50) came to 91 µM.

`Cc1cccc(Oc2cnc(C(=O)NCC(=O)O)c(O)c2)c1C` [Compound 5, 2-(5-(2,3-dimethylphenoxy)-3-hydroxypyridine-2-formamido) acetic acid] returned an IC50 of 237 µM. `O=C(O)CNC(=O)c1ncc(Oc2cccc(F)c2F)cc1O` [Compound 9, 2-(5-(2,3-difluorophenoxy)-3-hydroxypyridine-2-formamido) acetic acid] had an IC50 of 15 µM.
